One may read the melting point as the temperature, or range, at which the solid turns liquid.

Where only a bound is given, the exact number is not on record here.

Take `CCOC(=O)c1cnc2n(CC)c3ccccc3n2c1=O`: the melting point fell in the range of 118 to 120 °C.
`O=C1C(O)=C(c2ccc(Cl)cc2)C(=O)C(O)=C1/C=C/c1ccccc1` yielded a melting point of 258 to 259 °C.
For `CCOC(=O)[C@H](CSCCc1ccccc1)NC(=O)C(CSC(C)=O)Cc1ccccc1` (stereo partly drawn), the melting point fell in the range of 63 to 64 °C.
Turning to `C[C@]1(CN2CCN(c3cc(-c4ccccc4)nc(-c4ccccc4)n3)CC2)Cn2cc([N+](=O)[O-])nc2O1`, the melting point lay in the range of 202 to 205 °C.
`Cc1oc(-c2ccc(Cl)cc2)nc1COc1cccc(/C=C/C(C)N(O)C(N)=O)c1` (stereo not drawn) came in with a melting point of 98 to 99 °C.
`OCc1cc(-c2ccc(Cl)c(Cl)c2)n(Cc2cccc(Cl)c2)n1`: the melting point was found to be 95 °C.
On to `CCCCCC(=O)C=Cc1ccc(CCCCCCCC(=O)O)o1`, for which the melting point was in the range of 58 to 59 °C.
The molecule `CC(C)c1nn(-c2ccccn2)c(-c2ccc(F)cc2)c1Br` showed a melting point of 98 to 100 °C.
On to `CC1=NCN2C1=Cc1cncnc1-c1cccc(C(=O)O)c12`, for which the melting point fell in the range of 285 to 287 °C.
Turning to `COc1cc2c(cc1Nc1ncc(Cl)c(Nc3ccccc3C(=O)OC(C)C)n1)CCN(CCCN(C)C)C(=O)C2`, the melting point was 63 to 90 °C.
For the molecule `ON=C1CCCc2c1ccc1ccccc21`, the melting point is 174 to 175 °C.
In turn, `CN1CCN(C(=O)C(c2ccc(Cl)cc2)c2c(Cl)cc(-n3ncc(=O)[nH]c3=O)cc2Cl)CC1` (stereo not drawn) returned a melting point of 262 °C.
Molecule `CCCCc1oc2ccccc2c1Cc1ccc(OS(=O)(=O)c2ccc(C(=O)O)c(O)c2)cc1` showed a melting point of 135 to 138 °C.
As for `Cc1nccn1-c1ccc(NC(=O)CCc2cnoc2-c2ccc(Cl)cc2)cn1`, the melting point lay in the range of 193 to 194 °C.
`NC(=O)C1CCc2cc(C(=O)c3ccccc3)c(O)cc21` (stereo not drawn) returned a melting point of 205 to 207 °C.
Turning to `Cc1c(NC(=O)c2ccc(-c3ccc(Cl)s3)cc2F)ccc2cc(CN3CCCCC3)cnc12`, the melting point was 205 to 206 °C.
On to `CCNC(=O)[C@@H](C[C@H](O)[C@H](CC1CCCCC1)NC(=O)OC(C)(C)C)C(C)(C)O`, for which the melting point lay in the range of 155 to 157 °C.
`CCN1C(=O)C(C)(C)C(=O)N(C)c2cc(CN(CCn3ccc4oc(C)cc4c3=O)Cc3ccnnc3)ccc21` yielded a melting point of 137 to 141 °C.
In turn, `CC(C)(C)COC(=O)N1CC2CC(CN(CC(O)COc3ccc(C#N)cc3)C2)C1` (stereo not drawn) had a melting point of 146 to 147 °C.
The molecule `CC(C)(C)OC(=O)CC(=O)c1ccc(C#N)cc1` showed a melting point of 82 to 83 °C.
The figure for `CCOP(=O)(/C=C/c1cn(-c2ccccc2)nc1OCc1ccc(OCc2nc(-c3cccc(O)c3)oc2C)c(OC)c1)OCC` is 127 to 128 °C; for `CCCCCCCCC(CCC(=O)O)(CCC(=O)O)C(C)=O` it is 69 to 71 °C.
Molecule `CC(=O)Oc1ccccc1C(=O)NC(Oc1ccc2ccccc2c1)C(Cl)(Cl)Cl` (stereo not drawn) returned a melting point of 158 to 160 °C.
Consider `COc1ccc2cc(CC(O)C(C)=O)ccc2c1` (stereo not drawn), for which the melting point lay within 107 to 110 °C.
Molecule `COC(=O)c1ccnc(N2CCN(Cc3ccccn3)C2=O)c1` came in with a melting point of 100 to 102 °C.
The figure for `COc1ccc(CCNC(=O)OC(C)(C)C)cc1O` is 100 to 101 °C.
In the case of `Nc1cccc(C(=O)Nc2nccn(-c3ccccc3)c2=O)c1`, the melting point was more than 250 °C.
The molecule `O=C(Nc1n[nH]c(=S)s1)NC(Cc1ccccc1)C(=O)NCc1ccncc1` (stereo not drawn) gave a melting point of 208 to 211 °C.
`O=[N+]([O-])N=C1NCCN1Cc1ccc(OCC(F)(F)F)nc1` had a melting point of 109 to 112 °C.
`COc1ccc2c(c1)-c1c([nH]c3c1-c1cc(OC)ccc1CC3)CC2` returned a melting point of 206 °C.
`O=C(O)c1ncn2c1Cn1ccnc1-c1sccc1-2` showed a melting point of 225 to 227 °C.
`COC(=O)C1=C(C)NC(C)=C(C(=O)OC)C1c1cccc(Nc2c(NCCCN3CCN(C4CCCCC4)CC3)c(=O)c2=O)c1` registered a melting point of 210 to 212 °C.
The value for `C[C@@H](NC(=O)c1c[nH]c2ncc(-c3nccc4ccccc34)nc12)C(=O)N1CC(C#N)C1` was 180 to 185 °C; that for `O=S(=O)(Cc1ccccc1)c1nc2ccc(O)cc2s1` was 188 to 189 °C.
The figure for `O=C(NCc1ccccc1)c1ccc(Cl)nc1` is 113 to 114 °C; for `O=C1C(=Cc2ccccc2)SC(=S)N1N=c1sc2ccccc2s1` it is 288 to 289 °C; for `CCC(CC)C(NS(=O)(=O)c1ccc(Br)s1)c1ccnn1-c1ccccc1` (stereo not drawn) it is 120 to 121 °C.
The value for `CC1=C(Nc2ccc(C3=NNC(=O)CC3C)cc2)CCC1=O` (stereo not drawn) was 285 to 286 °C; that for `COc1c(C)c(C)c(OC)c(C=CC(=O)C(=O)O)c1C` was 126 to 127 °C; that for `C[C@@H]1S[C@@H](C(=O)Nc2ccc(CN3C(=O)CCCC3=O)cc2)Cc2cc3c(cc2C1=O)OCO3` was 205 to 208 °C.
`CCOC(=O)c1cnn2c1c(=S)[nH]c1ccccc12` gave a melting point of 270 to 272 °C.
On to `Cc1ccc2cccc(OCc3cc(N(C)C(=O)CN4C(=O)c5ccccc5C4=O)ccc3Cl)c2n1`, for which the melting point lay in the range of 120 to 124 °C.
`Cc1coc2c1C(=O)CC(c1ccc(F)cc1)C2` (stereo not drawn): the melting point is 81 to 82 °C.
As for `O=C(Nc1cccc2c1C(=O)c1c-2n[nH]c1C1CCN(C(=O)c2cccs2)CC1)NN1CCOCC1`, the melting point was 218 to 220 °C.
`C[N+]([O-])=NNc1cccnc1` came in with a melting point of 95 to 97 °C.
Regarding `CC(OC(=O)N(C(C)C)C(C)C)c1ccccc1[N+](=O)[O-]` (stereo not drawn), the melting point was 40 to 41 °C.
`CCCOc1cc([N+](=O)[O-])ccc1Cl`: the melting point was 52 to 53 °C.
`CCCCCN1Cc2cccc(S(N)(=O)=O)c2S1(=O)=O` showed a melting point of 156 to 160 °C.
With `COc1c(N2CCC(NC(=O)OC(C)(C)C)C2)c(F)cc2c(=O)c(C(=O)O)cn(C3CC3)c12` (stereo not drawn), the melting point lay within 224 to 226 °C.
The molecule `COc1ccc2c(c1OC)CC1C(=O)N(Cc3ccccc3)C(=O)C21` (stereo not drawn) yielded a melting point of 130 to 132 °C.
Molecule `c1ccc(-c2nc(CCCCCCc3nnn[nH]3)oc2-c2ccccc2)cc1` displayed a melting point of 132 °C.
The figure for `O=c1ccc(Oc2ccc(Cl)cc2)n[nH]1` is 202 °C; for `CCCCC1NC(C(=O)O)CS1` (mixture of isomers) it is 195 °C; for `COCc1c(C(=O)c2ccccc2)ncc2[nH]c3cccc(Cc4ccccc4Cl)c3c12` it is 147 to 148 °C.
The figure for `O=[N+]([O-])c1ccccc1N1CCN(Cc2ccccc2)CCN1` is 90 to 92 °C; for `CC1(C)CCOC1=Cn1cncn1` it is 47 °C.
In turn, `COc1ccc([C@@H]2CCc3cc(OC)ccc3[C@@H]2CCCO)cc1` (relative stereo) had a melting point of 99 °C.
Consider `CCCCCCCCc1c(C)nc2cc(C)nn2c1O`, for which the melting point stood at 199 °C.
In turn, `CCC(C)(OCc1nn(Cc2ccccc2)c2ccccc12)C(=O)O` (stereo not drawn) returned a melting point of 66 to 67 °C.
`CCOc1nsc(NC(=O)Oc2ccccc2)c1C#N`: the melting point is 252 to 253 °C.
`CC1(C)CCOC1=C(n1ccnc1)S(=O)(=O)c1ccc(Cl)cc1` came in with a melting point of 192 to 194 °C.
`CCOC(=O)C1=C(C)N=C(N)C(Cc2ccccc2)(C(=O)OCC)C1c1cccc([N+](=O)[O-])c1` (stereo not drawn): the melting point is 208 °C.
In the case of `O=CCC1Cc2cc(F)c(F)cc2C1=O` (racemic), the melting point was 78 to 81 °C.
Consider `COc1ccc(Nc2ccc(Nc3ncnc4cc(-c5ccc(OC)nc5)sc34)cc2)cc1`, for which the melting point lay within 149 to 159 °C.
On to `CC(C)N(CCC1(c2ccccc2)C(=O)NC(C)N2CCCCC21)C(C)C` (stereo not drawn), for which the melting point was 142 to 145 °C.
`CCOC(=O)c1c(-c2ccccc2)n(C)c(-c2ccccc2)cc1=O` had a melting point of 177 to 179 °C.
The molecule `CN1CCN(c2cc(-c3cnc4c(c3)N(C(=O)Cc3cc(F)ccc3F)CCN4)ccn2)CC1` yielded a melting point of more than 300 °C.
Regarding `CC1C(c2ccccc2)NC(=S)N1O` (stereo not drawn), the melting point came to 202 °C.
Turning to `Cc1ccc(OC2=C(Oc3ccc(C)cc3)C(F)(F)C(F)(F)C2(F)F)cc1`, the melting point was 46 to 48 °C.
`CCOC(=O)c1cn(CCc2ccccc2)nc1N` returned a melting point of 76.9 to 78.6 °C.
The molecule `N#Cc1nn(-c2c(Cl)cc(C(F)(F)F)cc2Cl)c(Cl)c1I` gave a melting point of 116 °C.
`O=C(CO/N=C/c1ccc([N+](=O)[O-])c(CO)c1)N1CCN(CC2CCCCC2)CC1` displayed a melting point of 170 °C.
`O=C1C=C(NC(=O)C(=O)c2cn(Cc3ccc(Cl)cc3)c3cccc(CO)c23)CO1` displayed a melting point of 238 to 240 °C.
Turning to `Cc1nc(C(=O)NC23CC4CC(CC(C4)C2)C3)cn1-c1ccccc1`, the melting point was 207 to 210 °C.
`COc1ccc(C(O)c2cccc(OCc3ccc4ccccc4n3)c2)cc1` (stereo not drawn) showed a melting point of 70 to 80 °C.
Regarding `Cc1ccccc1C1C(C#N)=C(c2cccs2)Nc2n[nH]cc21` (stereo not drawn), the melting point came out at 276 °C.
In turn, `O=C(O)C(=O)c1ccc(OCC(=O)c2ccc3ccccc3c2)cc1` registered a melting point of 167 to 170 °C.
Molecule `CS(=O)(=O)N[C@@H]1CCCC[C@H]1OCC(=O)O` (relative stereo) displayed a melting point of 119 to 121 °C.
The molecule `COC(=O)COc1ccc(C(=O)CBr)c2ccccc12` displayed a melting point of 99 to 101 °C.
With `COc1cc2cc(CO)c(CO)c(-c3ccnc(N4CCC(O)c5ccccc54)c3)c2cc1OC` (stereo not drawn), the melting point was 90 to 94 °C.
The value for `O=[N+]([O-])c1oc2ccccc2c1-n1ccnc1` was 147 to 149 °C.
`O=c1[nH]c2ncc(-c3ccc(O)cc3)nc2n1CC1CCCOC1` (stereo not drawn) gave a melting point of 271 to 272 °C.
For the molecule `Cc1cc(C)cc(Sc2c(C)c[nH]c(=O)c2N)c1`, the melting point fell in the range of 208 to 210 °C.
On to `O=C(Nc1c([N+](=O)[O-])cnn1-c1c(Cl)cc(C(F)(F)F)c(Cl)c1Cl)C(Cl)Cl`, for which the melting point lay within 112 to 120 °C.
On to `CCCCOC(=O)CN1CCC(NC(=O)OC(C)(C)C)CC1`, for which the melting point was 116 °C.
Molecule `Cc1noc(C)c1S(=O)(=O)Nc1ccc(Cl)cc1[N+](=O)[O-]` yielded a melting point of 130 to 131 °C.
Regarding `COC(=O)c1oc(C(C)(C)C)cc1NC(=O)Nc1cccc(Cl)c1Cl`, the melting point was in the range of 195 to 197 °C.
As for `CCOC(=O)c1nc2c(C)nn(CC)c2nc1OCC`, the melting point lay within 81 to 82 °C.

Source of the values: a melting point compilation (Tetko et al.; mined from patent text by program, amines drawn as free bases though some values may be those of a salt).
